In BigSolDB 2.1:

CC(C)Oc1ccc2c(=O)c(-c3ccccc3)coc2c1
solubility (mole fraction)
Conditions | 278.15 K | 283.15 K | 288.15 K | 293.15 K | 298.15 K | 303.15 K | 308.15 K | 313.15 K | 318.15 K | 323.15 K
in DMAc | 0.0395 | 0.0454 | 0.0534 | 0.062 | 0.0721 | 0.0841 | 0.0981 | 0.113 | 0.133 | 0.152
in DMF | 0.0245 | 0.0301 | 0.0352 | 0.0431 | 0.0506 | 0.0622 | 0.0718 | 0.0884 | 0.103 | 0.126
in acetone | 0.00852 | 0.0102 | 0.0128 | 0.0157 | 0.0193 | 0.0241 | 0.0291 | 0.0363 | 0.0441 | 0.056
in acetonitrile | 0.00246 | 0.00336 | 0.00441 | 0.0056 | 0.00731 | 0.00942 | 0.0122 | 0.0159 | 0.0212 | 0.0282
in dichloromethane | 0.0667 | 0.0735 | 0.0809 | 0.0903 | 0.0988 | 0.108 | 0.119 | – | – | –
in ethanol | 0.000992 | 0.00141 | 0.00187 | 0.00239 | 0.00301 | 0.00409 | 0.00521 | 0.00696 | 0.00872 | 0.012
in methanol | 0.000841 | 0.00109 | 0.0015 | 0.00195 | 0.00244 | 0.0032 | 0.00391 | 0.00505 | 0.00623 | 0.00823
in methyl acetate | 0.00948 | 0.0116 | 0.0142 | 0.0174 | 0.0213 | 0.0264 | 0.0321 | 0.039 | 0.0479 | 0.059
in n-butanol | 0.00166 | 0.00215 | 0.00294 | 0.00375 | 0.00494 | 0.00645 | 0.00842 | 0.0113 | 0.0153 | 0.0195
in n-pentanol | 0.00192 | 0.00239 | 0.00338 | 0.00461 | 0.00597 | 0.0073 | 0.00992 | 0.0125 | 0.0165 | 0.0221
in n-propanol | 0.00135 | 0.00172 | 0.00223 | 0.00307 | 0.00399 | 0.00509 | 0.00671 | 0.00877 | 0.0113 | 0.0147
in toluene | 0.0114 | 0.0143 | 0.0174 | 0.022 | 0.0271 | 0.0338 | 0.0417 | 0.0523 | 0.0638 | 0.0802
